Reference: patent publication US12000833B2, “Marker for predicting the sensitivity to PI3K inhibitors” (INSERM (INSTITUT NATIONAL DE LA SANTE ET DE LA RECHERCHE …, priority 2017, dated 2024)

Experiments:
phosphorylation of Akt [1] = test: Serum (FBS)-stimulated phosphorylation of Akt and downstream effectors in Capan-1 cells; assay type: cell-based, human; conditions: Capan-1, after 10 min stimulation with serum
Experimental: Light amino acid-labelled and heavy amino acid-labelled Capan-1 cells (respectively called thereafter “light” and “heavy” cells) were washed twice with phosphate buffer saline (PBS; SIGMA; D8537), trypsined (GE Healthcare; L11-002) and plated at a concentration of 2.5.10^6 cells in a 14.4 cm-diameter dish (Dutscher, 055063). After 48 h, cells were serum-starved during 16 h, over-night. Light and heavy cells were pre-treated respectively with inhibitors or their accordingly diluted vehicule (DMSO) (for drug description and used concentration) during 1 h, then stimulated or not for 10 min or 24 h with 2% dialysed FBS. After 10 min and 24 h of FBS stimulation, heavy cells and light cells were maintained on ice, washed three times with cold PBS and lysed.
(§1) In pancreatic cancer, PI3K signalling is associated with a poor prognosis. […] However, this was not always coupled to a significant increase in the phosphorylation levels of canonical targets, pPRAS40 or pS6K, in all patients (data not shown), emphasizing the importance of other signalling targets downstream PI3Ks. Long-term inhibition of a core signal node is believed to induce an adaptive modification of the entire signal network. We tested if long-term inhibition of each PI3K isoforms induces a differential change in pancreatic cancer cell adaptation. To answer this question, we devise a strategy to globally identify this adaptive response focusing on phospho-site regulated signalling pathways (data not shown). […] Serum, which consist of a combination of RTK and GPCR stimuli mimicking physiopathological signalling, induces after 10 min a significant activation of class I PI3Ks as assessed by the phosphorylation of Akt and known downstream effectors PRAS40, S6K, S6 (data not shown). […] We thus chose these stimulation conditions to identify differential phosphoproteome across time in response to three PI3K iso form-selective drugs after SILAC metabolic labelling and enrichment in trypsine-based phosphopeptides by TiO2 beads allowing a robust S/T/Y phosphorylation quantification of thousands of proteins.

phosphorylation of Akt [2] = test: RTK-driven (EGF) or GPCR-driven (LPA) short-term phosphorylation of Akt; assay type: cell-based, human; conditions: data not shown
Text: as §1

[3] = system: metastatic pancreatic cancer; conditions: cited from earlier work
[4] = monotherapy, gemcitabine-resistant metastatic pancreatic cancer patient

Cc1nc(NC(=O)N2CCC[C@H]2C(N)=O)sc1-c1csc(C(C)(C)C)n1 [A66]
pS473 and pT308Akt levels (phosphorylation of Akt [1]): significantly inhibited | RTK-driven (EGF) short-term phosphorylation of Akt (phosphorylation of Akt [2]; EGF stimulation): inhibited

O=C1NC(=O)/C(=C/c2ccc(-c3ccc(F)cc3O)o2)S1 [AS-252424]
pS473 and pT308Akt levels (phosphorylation of Akt [1]): significantly inhibited | GPCR-driven (LPA) short-term phosphorylation of Akt (phosphorylation of Akt [2]; LPA stimulation): inhibited

CO[C@H]1C[C@@H]2CC[C@@H](C)[C@@](O)(O2)C(=O)C(=O)N2CCCC[C@H]2C(=O)O[C@H]([C@H](C)C[C@@H]2CC[C@@H](OCCO)[C@H](OC)C2)CC(=O)[C@H](C)/C=C(\C)[C@@H](O)[C@@H](OC)C(=O)[C@H](C)C[C@H](C)/C=C/C=C/C=C/1C [RAD001]
clinical action [3, 4]: only a minimal clinical action | tolerability [3, 4]: well tolerated

Cc1cc(C(C)Nc2ccccc2)c2nc(N3CCOCC3)cc(=O)n2c1 (centres unmarked) [TGX-221]
pS473 and pT308Akt levels (phosphorylation of Akt [1]): significantly inhibited

Nc1ccn([C@@H]2O[C@H](CO)[C@@H](O)C2(F)F)c(=O)n1 [gemcitabine]
patient survival ([3]; standard of line chemotherapy, pancreatic cancer patients): increases their survival of only a few weeks
